According to ChEMBL document CHEMBL4665869, “New thiazolopyrimidine as anticancer agents: Synthesis, biological evaluation, DNA binding, molecular modeling and ADMET study” (Bioorg Med Chem Lett, 2020):
Values after ≈ are worked out from the molar mass of the structure shown.

What was measured:
[1] = test system: SNB-75; experiment: Growth inhibition of human SNB-75 cells at 10 uM relative to control; type: functional; details: read-out: GI
[2] = test system: NCI-H522; experiment: Growth inhibition of human NCI-H522 cells at 10 uM relative to control; type: functional; details: read-out: GI
[3] = test system: SK-OV-3; experiment: Growth inhibition of human SK-OV-3 cells at 10 uM relative to control; type: functional; details: read-out: GI
[4] = test system: RXF 393; experiment: Growth inhibition of human RXF 393 cells at 10 uM relative to control; type: functional; details: read-out: GI
[5] = test system: HCT-116; experiment: Growth inhibition of human HCT-116 cells at 10 uM relative to control; type: functional; details: read-out: GI
[6] = test system: NCI-H460; experiment: Growth inhibition of human NCI-H460 cells at 10 uM relative to control; type: functional; details: read-out: GI
[7] = test system: SNB-19; experiment: Growth inhibition of human SNB-19 cells at 10 uM relative to control; type: functional; details: read-out: GI
[8] = test system: NCI-H322M; experiment: Growth inhibition of human NCI-H322M cells at 10 uM relative to control; type: functional; details: read-out: GI
[9] = test system: MDA-MB-231; experiment: Growth inhibition of human MDA-MB-231 cells at 10 uM relative to control; type: functional; details: read-out: GI
[10] = test system: BT-549; experiment: Growth inhibition of human BT-549 cells at 10 uM relative to control; type: functional; details: read-out: GI
[11] = test system: LOX IMVI; experiment: Growth inhibition of human LOX IMVI cells at 10 uM relative to control; type: functional; details: read-out: GI
[12] = target: DNA; experiment: Displacement of methyl green from DNA (unknown origin) assessed as DNA intercalation after 24 hrs by colorimetric assay; type: nucleic-acid assay
[13] = test system: HT-29; experiment: Growth inhibition of human HT-29 cells at 10 uM relative to control; type: functional; details: read-out: GI
[14] = test system: SR; experiment: Growth inhibition of human SR cells at 10 uM relative to control; type: functional; details: read-out: GI
[15] = test system: CAKI-1; experiment: Growth inhibition of human CAKI-1 cells at 10 uM relative to control; type: functional; details: read-out: GI
[16] = test system: Malme-3M; experiment: Growth inhibition of human Malme-3M cells at 10 uM relative to control; type: functional; details: read-out: GI
[17] = test system: A549; experiment: Growth inhibition of human A549 cells at 10 uM relative to control; type: functional; details: read-out: GI
[18] = test system: SK-MEL-28; experiment: Growth inhibition of human SK-MEL-28 cells at 10 uM relative to control; type: functional; details: read-out: GI
[19] = test system: RPMI-8226; experiment: Growth inhibition of human RPMI-8226 cells at 10 uM relative to control; type: functional; details: read-out: GI
[20] = test system: MCF7; experiment: Growth inhibition of human MCF7 cells at 10 uM relative to control; type: functional; details: read-out: GI
[21] = test system: COLO 205; experiment: Growth inhibition of human COLO 205 cells at 10 uM relative to control; type: functional; details: read-out: GI
[22] = test system: M14; experiment: Growth inhibition of human M14 cells at 10 uM relative to control; type: functional; details: read-out: GI
[23] = test system: ACHN; experiment: Growth inhibition of human ACHN cells at 10 uM relative to control; type: functional; details: read-out: GI
[24] = test system: UACC-257; experiment: Growth inhibition of human UACC-257 cells at 10 uM relative to control; type: functional; details: read-out: GI
[25] = test system: 786-0; experiment: Growth inhibition of human 786-0 cells at 10 uM relative to control; type: functional; details: read-out: GI
[26] = test system: SW-620; experiment: Growth inhibition of human SW-620 cells at 10 uM relative to control; type: functional; details: read-out: GI
[27] = test system: T47D; experiment: Growth inhibition of human T47D cells at 10 uM relative to control; type: functional; details: read-out: GI
[28] = test system: CCRF-CEM; experiment: Growth inhibition of human CCRF-CEM cells at 10 uM relative to control; type: functional; details: read-out: GI
[29] = test system: UACC-62; experiment: Growth inhibition of human UACC-62 cells at 10 uM relative to control; type: functional; details: read-out: GI
[30] = test system: MDA-MB-468; experiment: Growth inhibition of human MDA-MB-468 cells at 10 uM relative to control; type: functional; details: read-out: GI
[31] = test system: SN12C; experiment: Growth inhibition of human SN12C cells at 10 uM relative to control; type: functional; details: read-out: GI
[32] = test system: HOP-92; experiment: Growth inhibition of human HOP-92 cells at 10 uM relative to control; type: functional; details: read-out: GI
[33] = test system: NCI/ADR-RES; experiment: Growth inhibition of human NCI/ADR-RES cells at 10 uM relative to control; type: functional; details: read-out: GI
[34] = test system: NCI-H23; experiment: Growth inhibition of human NCI-H23 cells at 10 uM relative to control; type: functional; details: read-out: GI
[35] = test system: DU-145; experiment: Growth inhibition of human DU-145 cells at 10 uM relative to control; type: functional; details: read-out: GI
[36] = test system: HL-60(TB); experiment: Growth inhibition of human HL-60(TB) cells at 10 uM relative to control; type: functional; details: read-out: GI
[37] = test system: NCI-H226; experiment: Growth inhibition of human NCI-H226 cells at 10 uM relative to control; type: functional; details: read-out: GI
[38] = test system: SF-295; experiment: Growth inhibition of human SF-295 cells at 10 uM relative to control; type: functional; details: read-out: GI
[39] = test system: SF-539; experiment: Growth inhibition of human SF-539 cells at 10 uM relative to control; type: functional; details: read-out: GI
[40] = test system: SF-268; experiment: Growth inhibition of human SF-268 cells at 10 uM relative to control; type: functional; details: read-out: GI
[41] = test system: OVCAR-8; experiment: Growth inhibition of human OVCAR-8 cells at 10 uM relative to control; type: functional; details: read-out: GI
[42] = test system: UO-31; experiment: Growth inhibition of human UO-31 cells at 10 uM relative to control; type: functional; details: read-out: GI
[43] = test system: KM12; experiment: Growth inhibition of human KM12 cells at 10 uM relative to control; type: functional; details: read-out: GI
[44] = test system: TK-10; experiment: Growth inhibition of human TK-10 cells at 10 uM relative to control; type: functional; details: read-out: GI
[45] = test system: OVCAR-4; experiment: Growth inhibition of human OVCAR-4 cells at 10 uM relative to control; type: functional; details: read-out: GI
[46] = test system: MDA-MB-435; experiment: Growth inhibition of human MDA-MB-435 cells at 10 uM relative to control; type: functional; details: read-out: GI
[47] = test system: SK-MEL-2; experiment: Growth inhibition of human SK-MEL-2 cells at 10 uM relative to control; type: functional; details: read-out: GI
[48] = test system: A498; experiment: Growth inhibition of human A498 cells at 10 uM relative to control; type: functional; details: read-out: GI
[49] = test system: HCC 2998; experiment: Growth inhibition of human HCC 2998 cells at 10 uM relative to control; type: functional; details: read-out: GI
[50] = test system: IGROV-1; experiment: Growth inhibition of human IGROV-1 cells at 10 uM relative to control; type: functional; details: read-out: GI
[51] = test system: K562; experiment: Growth inhibition of human K562 cells at 10 uM relative to control; type: functional; details: read-out: GI
[52] = test system: OVCAR-5; experiment: Growth inhibition of human OVCAR-5 cells at 10 uM relative to control; type: functional; details: read-out: GI
[53] = test system: HCT-15; experiment: Growth inhibition of human HCT-15 cells at 10 uM relative to control; type: functional; details: read-out: GI
[54] = test system: HOP-62; experiment: Growth inhibition of human HOP-62 cells at 10 uM relative to control; type: functional; details: read-out: GI
[55] = test system: PC-3; experiment: Growth inhibition of human PC-3 cells at 10 uM relative to control; type: functional; details: read-out: GI
[56] = test system: U-251; experiment: Growth inhibition of human U-251 cells at 10 uM relative to control; type: functional; details: read-out: GI
[57] = test system: Hs-578T; experiment: Growth inhibition of human Hs-578T cells at 10 uM relative to control; type: functional; details: read-out: GI
[58] = test system: MOLT-4; experiment: Growth inhibition of human MOLT-4 cells at 10 uM relative to control; type: functional; details: read-out: GI
[59] = test system: SK-MEL-5; experiment: Growth inhibition of human SK-MEL-5 cells at 10 uM relative to control; type: functional; details: read-out: GI

CCOC(=O)C1=CSC2=NC(/C=C/c3cc(OC)c(OC)c(OC)c3)=CC(c3cc(OC)c(OC)c(OC)c3)N12 (centres undefined)
inhibition of growth at 10 µM [1]: 18.4%
inhibition of growth at 10 µM [2]: 47.8%
inhibition of growth at 10 µM [3]: < 10%
inhibition of growth at 10 µM [4]: < 10%
inhibition of growth at 10 µM [5]: 44.4%
inhibition of growth at 10 µM [6]: < 10%
inhibition of growth at 10 µM [7]: < 10%
inhibition of growth at 10 µM [8]: < 10%
inhibition of growth at 10 µM [9]: 14.5%
inhibition of growth at 10 µM [10]: < 10%
inhibition of growth at 10 µM [11]: 29.7%
IC50 [12]: 43.92 µg/mL (≈ 77.2 µM)
inhibition of growth at 10 µM [13]: 13%
inhibition of growth at 10 µM [14]: 59%
inhibition of growth at 10 µM [15]: < 10%
inhibition of growth at 10 µM [16]: < 10%
inhibition of growth at 10 µM [17]: < 10%
inhibition of growth at 10 µM [18]: < 10%
inhibition of growth at 10 µM [19]: 18%
inhibition of growth at 10 µM [20]: 28.9%
inhibition of growth at 10 µM [21]: < 10%
inhibition of growth at 10 µM [22]: < 10%
inhibition of growth at 10 µM [23]: < 10%
inhibition of growth at 10 µM [24]: 17.2%
inhibition of growth at 10 µM [25]: < 10%
inhibition of growth at 10 µM [26]: 13.4%
inhibition of growth at 10 µM [27]: < 10%
inhibition of growth at 10 µM [28]: 69.3%
inhibition of growth at 10 µM [29]: 18%
inhibition of growth at 10 µM [30]: < 10%
inhibition of growth at 10 µM [31]: < 10%
inhibition of growth at 10 µM [32]: < 10%
inhibition of growth at 10 µM [33]: < 10%
inhibition of growth at 10 µM [34]: < 10%
inhibition of growth at 10 µM [35]: < 10%
inhibition of growth at 10 µM [36]: < 10%
inhibition of growth at 10 µM [37]: < 10%
inhibition of growth at 10 µM [38]: < 10%
inhibition of growth at 10 µM [39]: < 10%
inhibition of growth at 10 µM [40]: < 10%
inhibition of growth at 10 µM [41]: 32%
inhibition of growth at 10 µM [42]: 13.7%
inhibition of growth at 10 µM [43]: 22.7%
inhibition of growth at 10 µM [44]: < 10%
inhibition of growth at 10 µM [45]: 12.5%
inhibition of growth at 10 µM [46]: < 10%
inhibition of growth at 10 µM [47]: < 10%
inhibition of growth at 10 µM [48]: < 10%
inhibition of growth at 10 µM [49]: < 10%
inhibition of growth at 10 µM [50]: < 10%
inhibition of growth at 10 µM [51]: 35.7%
inhibition of growth at 10 µM [52]: < 10%
inhibition of growth at 10 µM [53]: 35%
inhibition of growth at 10 µM [54]: < 10%
inhibition of growth at 10 µM [55]: 21.1%
inhibition of growth at 10 µM [56]: < 10%
inhibition of growth at 10 µM [57]: < 10%
inhibition of growth at 10 µM [58]: 25.1%
inhibition of growth at 10 µM [59]: 12%
